From US12679878B2, “CRF2 receptor agonists and their use in therapy” (SANOFI, priority 2020, dated 2026)
Where two headings read alike, the source gives them in different places. Starred links: 1 amine or outer side, 2 acyl side, 3 side chain; linkers in the order of their positions; H or OH if unused. Non-standard residues stand in square brackets, D forms with d. Residues, ends and D or L forms follow the SMILES beside them. Groups on a side chain read outwards from the residue. *: point of attachment. C18 diacid = O=C(O)CCCCCCCCCCCCCCCCC(=O)*; γGlu = O=C(O)[C@H](CCC(=O)[*:2])N[*:1]; Palmitoyl = CCCCCCCCCCCCCCCC(=O)*; AEEA = NCCOCCOCC(=O)O; Aib = CC(C)(N)C(=O)O

How the values were obtained:
human CRF2α receptor = biological target: T1, human CRF2α receptor (Homo sapiens, UniProt Q13324); test: cAMP agonism at human CRF2 α receptor in TeloHEAC cells (Example 7); assay type: cell-based; conditions: cAMP HTRF, TeloHEAC cells stably expressing human CRF2 α
T1 construct: expressed in transfected cells; host or cells: TeloHEAC
T1 sequence (Q13324 1-411): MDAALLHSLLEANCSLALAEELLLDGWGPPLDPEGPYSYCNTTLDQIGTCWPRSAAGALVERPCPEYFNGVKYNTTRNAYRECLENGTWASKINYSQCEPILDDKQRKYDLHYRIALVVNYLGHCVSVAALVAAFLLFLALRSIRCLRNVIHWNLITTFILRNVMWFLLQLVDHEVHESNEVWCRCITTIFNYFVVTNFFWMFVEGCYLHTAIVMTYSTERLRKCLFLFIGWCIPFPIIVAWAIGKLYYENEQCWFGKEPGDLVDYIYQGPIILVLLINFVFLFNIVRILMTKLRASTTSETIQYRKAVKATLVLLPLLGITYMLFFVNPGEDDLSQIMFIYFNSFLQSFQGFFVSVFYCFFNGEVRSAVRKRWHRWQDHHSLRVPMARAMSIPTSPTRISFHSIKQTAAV
How it was run: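 HTRF ratio 665/620 nm, read 1 h after lysis reagents, reports cAMP. Cells: thawed stocks, 2000/well, 30 min RT with compound in HBSS, 20 mM HEPES, 0 or 0.1% HSA, 2 mM IBMX. Activity normalised to UCN2 1000 nM = 100%; EC50 from half-maximal activation.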

[1] = Solubility in buffer systems by UPLC-UV (Example 13); assay type: physicochemical; conditions: pH 4.5, Solubility in Buffer B [mg/ml]
Description: Prior to performing the solubility measurements, the purity of the compounds was determined through UPLC/MS. […] Therefore, solutions from solid samples were prepared in a buffer system with a concentration of 10 mg/mL compound based on the previously determined % purity.
UPLC-UV was performed after 1 hour of gentle agitation from the supernatant, which was obtained after 15 minutes of centrifugation at 2500 RCF (relative centrifugal acceleration). The solubility was determined by the comparison of the UV peak area of a 2 μL-injection of a buffered sample diluted 1:10 with a standard curve of a reference compound with known concentration. The different UV extinction coefficients of sample and reference compound were calculated based on the different amino acid sequences and considered in the concentration calculation.

rat CRF2R α receptor = test: cAMP agonism at rat CRF2R α receptor in A7R5 rat aortic smooth muscle cells (Example 8); assay type: cell-based; conditions: cAMP HTRF, A7R5 rat aortic smooth muscle cell line, 0% HSA
How it was run: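 Potency (EC50) is the concentration reaching half-maximal activation, with responses scaled so that 1000 nM urocortin 2 equals 100%. Intracellular cAMP was quantified by homogeneous time-resolved fluorescence at 665/620 nm, 1 h after lysis-buffer reagents. Compound stimulation lasted 30 min at room temperature on 2000 IBMX-treated (2 mM) cells per well in HEPES-buffered HBSS.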

CRF1R receptor = biological target: T2, CRF1R receptor (Homo sapiens, UniProt P34998); test: cAMP activity at anti-target CRF1R, CRF1R-overexpression CHO cell line (Example 9); assay type: cell-based; conditions: CRF1R-overexpression CHO cell line; for EC50: 0% HSA; for Emax: read-out: Emax (%)
T2 construct: host or cells: CHO-K1 clone 2
T2 sequence (P34998 24-415): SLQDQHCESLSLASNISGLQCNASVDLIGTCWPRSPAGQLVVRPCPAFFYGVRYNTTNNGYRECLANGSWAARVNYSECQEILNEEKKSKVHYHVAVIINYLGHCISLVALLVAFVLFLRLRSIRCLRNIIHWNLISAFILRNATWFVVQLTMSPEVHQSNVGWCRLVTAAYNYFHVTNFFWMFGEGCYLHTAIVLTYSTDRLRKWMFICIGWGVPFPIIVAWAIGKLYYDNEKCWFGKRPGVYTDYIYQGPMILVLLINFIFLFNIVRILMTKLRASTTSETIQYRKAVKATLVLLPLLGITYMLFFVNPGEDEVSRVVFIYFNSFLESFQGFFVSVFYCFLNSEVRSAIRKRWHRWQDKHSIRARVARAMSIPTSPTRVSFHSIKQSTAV
How it was run: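 Using thawed CRF1R-overexpressing CHO cells at 2000 per well, compound is applied for 30 min at RT in HBSS/HEPES buffer with IBMX. Cellular cAMP content is determined via HTRF, and percent activity is calculated against 1000 nM UCN2 defined as 100%.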

[2] = 0% HSA, read-out: EC50 [nM], 0% HSA
[3] = 0.1% HSA, read-out: EC50 [nM], 0.1% HSA

EC50 (human CRF2α receptor; [2])	EC50 (human CRF2α receptor; [3])	solubility at 1 h [1]	EC50 (rat CRF2R α receptor)	EC50 (CRF1R receptor)	Emax (CRF1R receptor)	Compound
0.01 nM	0.01 nM	> 7600 µg/mL				CCCCCCCCCCCCCCCC(=O)N[C@@H](CCC(=O)NCCCC[C@H](NC(=O)[C@H](CC(C)C)NC(=O)[C@H](CCCCN)NC(=O)[C@@H](NC(=O)[C@@H]1CCCN1C(=O)[C@@H](NC(=O)[C@H](CC(=O)O)NC(=O)[C@H](CC(C)C)NC(=O)[C@H](CO)NC(=O)[C@H](CC(C)C)NC(=O)[C@@H](NC(=O)[C@@H](N)[C@@H](C)CC)C(C)C)C(C)C)[C@@H](C)CC)C(=O)N[C@@H](CCCCN)C(=O)N[C@H](C(=O)N[C@@H](CC(C)C)C(=O)N[C@@H](CC(C)C)C(=O)N[C@@H](CCC(=O)O)C(=O)N[C@@H](CCC(N)=O)C(=O)N[C@@H](CCC(=O)O)C(=O)N[C@@H](CCCCN)C(=O)N[C@@H](CCC(N)=O)C(=O)N[C@@H](CCC(=O)O)C(=O)N[C@@H](CCCCN)C(=O)N[C@@H](CCC(=O)O)C(=O)N[C@@H](CCCCN)C(=O)N[C@@H](CCC(N)=O)C(=O)N[C@@H](CCC(N)=O)C(=O)N[C@@H](C)C(=O)N[C@@H](CCC(=O)O)C(=O)N[C@H](C(=O)N[C@@H](CC(N)=O)C(=O)N[C@@H](C)C(=O)N[C@@H](CCC(N)=O)C(=O)N[C@H](C(=O)N[C@@H](CC(C)C)C(=O)N[C@@H](C)C(=O)N[C@@H](CCC(N)=O)C(=O)N[C@H](C(N)=O)C(C)C)[C@@H](C)CC)[C@@H](C)O)[C@@H](C)CC)C(=O)O [compound 2] (H-IVLSLDVPIKLK([γGlu-Palmitoyl])KILLEQEKQEKEKQQAETNAQILAQV-NH2; N-terminus assumed)
0.01 nM		> 8800 µg/mL				CCCCCCCCCCCCCCCC(=O)N[C@@H](CCC(=O)NCCCC[C@H](NC(=O)[C@H](CC(C)C)NC(=O)[C@H](CCCCN)NC(=O)[C@@H](NC(=O)[C@@H]1CCCN1C(=O)[C@@H](NC(=O)[C@H](CC(=O)O)NC(=O)[C@H](CC(C)C)NC(=O)[C@H](CO)NC(=O)[C@H](CC(C)C)NC(=O)[C@@H](NC(=O)[C@@H](N)[C@@H](C)CC)C(C)C)C(C)C)[C@@H](C)CC)C(=O)N[C@@H](CCCCN)C(=O)N[C@H](C(=O)N[C@@H](CC(C)C)C(=O)N[C@@H](CC(C)C)C(=O)N[C@@H](CCC(=O)O)C(=O)N[C@@H](CCC(N)=O)C(=O)N[C@@H](CCC(=O)O)C(=O)N[C@@H](CCCCN)C(=O)N[C@@H](CCC(N)=O)C(=O)N[C@@H](CCC(=O)O)C(=O)N[C@@H](CCCCN)C(=O)N[C@@H](CCC(=O)O)C(=O)N[C@@H](CCCCN)C(=O)N[C@@H](CCC(N)=O)C(=O)N[C@@H](CCC(N)=O)C(=O)N[C@@H](C)C(=O)N[C@@H](CCC(=O)O)C(=O)N[C@@H](CCCCN)C(=O)N[C@@H](CC(N)=O)C(=O)N[C@@H](C)C(=O)N[C@@H](CCC(N)=O)C(=O)N[C@H](C(=O)N[C@@H](CC(C)C)C(=O)N[C@@H](C)C(=O)N[C@@H](CCC(N)=O)C(=O)N[C@H](C(N)=O)C(C)C)[C@@H](C)CC)[C@@H](C)CC)C(=O)O [compound 3] (H-IVLSLDVPIKLK([γGlu-Palmitoyl])KILLEQEKQEKEKQQAEKNAQILAQV-NH2)
0.18 nM	8.17 nM		2.53 nM	> 1000 nM	4.54%	CC[C@H](C)[C@H](N)C(=O)N[C@H](C(=O)N[C@@H](CC(C)C)C(=O)N[C@@H](CO)C(=O)N[C@@H](CC(C)C)C(=O)N[C@@H](CC(=O)O)C(=O)N[C@@H](C(=O)N1CCC[C@H]1C(=O)N[C@H](C(=O)NCC(=O)N[C@@H](CC(C)C)C(=O)N[C@@H](CCCCNC(=O)COCCOCCNC(=O)COCCOCCNC(=O)CC[C@H](NC(=O)CCCCCCCCCCCCCCCCC(=O)O)C(=O)O)C(=O)N[C@@H](CCC(N)=O)C(=O)N[C@H](C(=O)N[C@@H](CC(C)C)C(=O)N[C@@H](CC(C)C)C(=O)N[C@@H](CCCCN)C(=O)N[C@@H](CCC(N)=O)C(=O)N[C@@H](CCC(=O)O)C(=O)N[C@@H](CCCNC(=N)N)C(=O)N[C@@H](CCC(N)=O)C(=O)N[C@@H](CCCCN)C(=O)N[C@@H](CCCCN)C(=O)NC(C)(C)C(=O)N[C@@H](CCCNC(=N)N)C(=O)N[C@@H](CCC(=O)O)C(=O)N[C@@H](CCC(N)=O)C(=O)N[C@@H](C)C(=O)N[C@@H](CCC(=O)O)C(=O)N[C@H](C(=O)N[C@@H](CC(N)=O)C(=O)N[C@@H](CCCCN)C(=O)N[C@@H](CCC(N)=O)C(=O)N[C@H](C(=O)N[C@@H](CC(C)C)C(=O)N[C@@H](C)C(=O)N[C@@H](CCC(N)=O)C(=O)N[C@H](C(N)=O)C(C)C)[C@@H](C)CC)[C@@H](C)O)[C@@H](C)CC)[C@@H](C)CC)C(C)C)C(C)C [compound 147] (H-IVLSLD[dV]PIGLK([AEEA-AEEA-γGlu-C18 diacid])QILLKQERQKK[Aib]REQAETNKQILAQV-NH2; N-terminus assumed)
0.08 nM	3.87 nM		0.49 nM	> 1000 nM	9.07%	CC[C@H](C)[C@H](N)C(=O)N[C@H](C(=O)N[C@@H](CC(C)C)C(=O)N[C@@H](CO)C(=O)N[C@@H](CC(C)C)C(=O)N[C@@H](CC(=O)O)C(=O)N[C@@H](C(=O)N1CCC[C@H]1C(=O)N[C@H](C(=O)NCC(=O)N[C@@H](CC(C)C)C(=O)N[C@@H](CCCCNC(=O)COCCOCCNC(=O)COCCOCCNC(=O)CC[C@H](NC(=O)CCCCCCCCCCCCCCCCC(=O)O)C(=O)O)C(=O)N[C@@H](CCC(N)=O)C(=O)N[C@H](C(=O)N[C@@H](CC(C)C)C(=O)N[C@@H](CC(C)C)C(=O)N[C@@H](CCCCN)C(=O)N[C@@H](CCC(N)=O)C(=O)N[C@@H](CCC(=O)O)C(=O)N[C@@H](CCCNC(=N)N)C(=O)N[C@@H](CCC(N)=O)C(=O)N[C@@H](CCCCN)C(=O)N[C@@H](CCCCN)C(=O)NC(C)(C)C(=O)N[C@@H](CCCNC(=N)N)C(=O)N[C@@H](CCC(=O)O)C(=O)N[C@@H](CCC(N)=O)C(=O)N[C@@H](C)C(=O)N[C@@H](CCC(=O)O)C(=O)N[C@@H](CCCCN)C(=O)N[C@@H](CC(N)=O)C(=O)N[C@@H](CCCCN)C(=O)N[C@@H](CCCNC(=N)N)C(=O)N[C@H](C(=O)N[C@@H](CC(C)C)C(=O)N[C@@H](CCC(=O)O)C(=O)N[C@@H](CCCNC(=N)N)C(=O)N[C@H](C(N)=O)C(C)C)[C@@H](C)CC)[C@@H](C)CC)[C@@H](C)CC)C(C)C)C(C)C [compound 151] (H-IVLSLD[dV]PIGLK([AEEA-AEEA-γGlu-C18 diacid])QILLKQERQKK[Aib]REQAEKNKRILERV-NH2; N-terminus assumed)
